Data published in patent publication US9169241B2, “Quinolinyloxyphenylsulfonamides” (Max-Planck-Gesellschaft Zur Forderung der Wissenschaften …, priority 2009, dated 2015).

Key:
Hs578T [1] = experiment: Cell vitality assay (ATP assay, CellTiter-Glo); assay type: cell-based; settings: Homo sapiens, Hs-578T; HS578T cell line, 72 h; Table Ib; read-out: IC50 ATP-Assay HS578T after 72 h
Summary of the method: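 Viability is estimated from cellular ATP after 72 h of compound treatment at 1000 cells per well. The dilution series runs 12.5, 6.25, 3.125, 1.56, 0.78, 0.39 and 0.195 μM. Half-maximal values are expressed against DMSO-treated wells.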

Hs578T [2] = experiment: Matrigel outgrowth assay/branching assay; assay type: cell-based; settings: Homo sapiens, Hs-578T; HS578T cell line; Table Ib; read-out: Total branching inhibition in Matrigel HS578T
Summary of the method: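 Invasive outgrowth into a 3 mg/ml Matrigel gel is judged from images taken after 48, 72 and 96 h of exposure to 3.125, 1.56 or 0.78 μM compound, with DMSO as control. Positive means total inhibition of branching.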

Hs578T [3] = experiment: Wound healing migration assay; assay type: cell-based; settings: Homo sapiens, Hs-578T; HS578T cell line; Table Ib
Summary of the method: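 Compound exposure at 12.5, 6.25 and 3.125 μM, with DMSO control, on scratch-wounded monolayers (150000 cells/24 well, overnight). Wound closure imaged by microscopy, fixed with crystal violet after 48 h or 72 h depending on cell line; IC50 is the concentration giving 50% wound size between t0 and t48/t72.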

[4] = molecular target: T1, wild type AXL (wtAXL) receptor tyrosine kinase (Homo sapiens, UniProt P30530); experiment: NIH-3T3-AXL cellular kinase assay (pY-AXL-ELISA); assay type: cell-based; settings: NIH-3T3-AXL (clone 22) cells, serum depleted, compounds 1 h; Table Ia
T1 construct: WtAXL cDNA was cloned into vector pLXSN(ESK) and transfected into Phoenix E packaging cells; expressed in transfected cells; host or cells: NIH3T3 N7 (mouse fibroblasts), retrovirally infected, clone 22
T1 sequence (P30530 26-894): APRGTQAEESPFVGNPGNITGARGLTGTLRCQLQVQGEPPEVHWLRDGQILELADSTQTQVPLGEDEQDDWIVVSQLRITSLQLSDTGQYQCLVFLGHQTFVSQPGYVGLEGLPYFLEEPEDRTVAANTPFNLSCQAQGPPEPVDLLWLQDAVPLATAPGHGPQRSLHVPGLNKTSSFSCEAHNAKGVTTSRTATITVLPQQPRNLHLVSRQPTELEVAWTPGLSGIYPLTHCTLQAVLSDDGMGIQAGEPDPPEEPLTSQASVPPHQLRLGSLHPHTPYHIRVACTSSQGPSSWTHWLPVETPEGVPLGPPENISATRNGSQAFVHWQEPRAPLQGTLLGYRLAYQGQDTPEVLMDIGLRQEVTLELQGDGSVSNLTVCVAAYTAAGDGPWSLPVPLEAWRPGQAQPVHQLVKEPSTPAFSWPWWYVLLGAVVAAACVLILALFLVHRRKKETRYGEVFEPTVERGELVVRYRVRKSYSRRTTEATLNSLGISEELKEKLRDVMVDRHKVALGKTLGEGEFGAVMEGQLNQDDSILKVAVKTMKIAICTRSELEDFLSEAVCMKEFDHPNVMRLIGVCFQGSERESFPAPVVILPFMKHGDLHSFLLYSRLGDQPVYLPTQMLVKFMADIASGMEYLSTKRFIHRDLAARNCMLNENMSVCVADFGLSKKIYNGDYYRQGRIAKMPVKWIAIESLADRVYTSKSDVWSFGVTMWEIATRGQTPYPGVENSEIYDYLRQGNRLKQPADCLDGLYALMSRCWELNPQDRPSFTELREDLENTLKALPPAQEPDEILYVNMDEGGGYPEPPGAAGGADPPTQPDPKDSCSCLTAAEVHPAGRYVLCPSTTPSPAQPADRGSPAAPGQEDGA
Summary of the method: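 Phospho-AXL was quantified by ELISA in lysates (4G10-biotin, streptavidin-AP, AttoPhos, 430/560 nm read at 90 min). The cells were monoclonal NIH3T3 lines stably transduced with human wtAXL, exposed to serial compound dilutions for 1 h before lysis.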

melting point [°C] | IC50 (Hs578T [3]) [µM] | IC50 [4] [µM] | SMILES | IC50 (Hs578T [1]) [µM] | IC50 (Hs578T [2]) [µM]
185 to 187 | 12.5 to 50 | 0.5 to 3 | COc1cc2c(Oc3ccc(NS(=O)(=O)c4ccco4)cc3F)ccnc2cc1OCCCN(C)C [Example 185, Furan-2-sulfonic acid {4-[7-(3-dimethylamino-propoxy)-6-methoxy-quinolin-4-yloxy]-3-fluoro-phenyl}-amide] | ≤ 12.5 | 10 to 25
222 to 226 | 12.5 to 50 | 0.5 to 3 | COc1cc2c(Oc3ccc(Cl)c(NS(=O)(=O)c4c(F)cccc4F)c3)ccnc2cc1OCCCN1CCC(C)CC1 [Example 194, N-(2-Chloro-5-{6-methoxy-7-[3-(4-methyl-piperidin-1-yl)-propoxy]-quinolin-4-yloxy}-phenyl)-2,6-difluoro-benzenesulfonamide] | 12.5 to 50 | 10 to 25
168 to 169 | ≤ 12.5 | 0.5 to 3 | COc1cc2c(Oc3ccc(NS(=O)(=O)c4ccccc4OC(F)(F)F)cc3C)ccnc2cc1OCCCN1CCC(C)CC1 [Example 174, N-(4-{6-Methoxy-7-[3-(4-methyl-piperidin-1-yl)-propoxy]-quinolin-4-yloxy}-3-methyl-phenyl)-2-trifluoromethoxy-benzenesulfonamide] | ≤ 12.5 | ≤ 10
128 to 130 | ≤ 12.5 | < 0.5 | COc1cc2c(Oc3ccc(NS(=O)(=O)c4csc5ccccc45)cc3F)ccnc2cc1OCCCN1CCCCC1 [Example 113, Benzo[b]thiophene-3-sulfonic acid {3-fluoro-4-[6-methoxy-7-(3-piperidin-1-yl-propoxy)-quinolin-4-yloxy]-phenyl}-amide] | ≤ 12.5 | ≤ 10
206 to 208 | ≤ 12.5 | 0.5 to 3 | COc1cc2c(Oc3ccc(Cl)c(NS(=O)(=O)c4cc(F)ccc4F)c3)ccnc2cc1OCCCN1CCC(C)CC1 [Example 193, N-(2-Chloro-5-{6-methoxy-7-[3-(4-methyl-piperidin-1-yl)-propoxy]-quinolin-4-yloxy}-phenyl)-2,5-difluoro-benzenesulfonamide] | 12.5 to 50 | 10 to 25
119 to 121 | ≤ 12.5 | < 0.5 | COc1cc2c(Oc3ccc(NS(=O)(=O)c4c(Cl)csc4Cl)cc3F)ccnc2cc1OCCCN1CCCC(C)C1 (stereo not drawn) [Example 64, 2,4-Dichloro-thiophene-3-sulfonic acid (3-fluoro-4-{6-methoxy-7-[3-(3-methyl-piperidin-1-yl)-propoxy]-quinolin-4-yloxy}-phenyl)-amide] | ≤ 12.5 | 10 to 25
189 to 191 | 12.5 to 50 | < 0.5 | COc1cc2c(Oc3ccc(NS(=O)(=O)c4cc(Cl)cc(Cl)c4OC)cc3F)ccnc2cc1OCCCN1CCOCC1 [Example 76, 3,5-Dichloro-N-{3-fluoro-4-[6-methoxy-7-(3-morpholin-4-yl-propoxy)-quinolin-4-yloxy]-phenyl}-2-methoxy-benzenesulfonamide] | ≤ 12.5 | 10 to 25
206 to 208 | 12.5 to 50 | 0.5 to 3 | COc1cc2c(Oc3ccc(Cl)c(NS(=O)(=O)c4c(Cl)cccc4Cl)c3)ccnc2cc1OCCCN1CCC(C)CC1 [Example 198, 2,6-Dichloro-N-(2-chloro-5-{6-methoxy-7-[3-(4-methyl-piperidin-1-yl)-propoxy]-quinolin-4-yloxy}-phenyl)-benzenesulfonamide] | 12.5 to 50 | 10 to 25
249 to 250 | 12.5 to 50 | 0.5 to 3 | COc1ccc2nccc(Oc3ccc(NS(=O)(=O)c4cc(F)ccc4F)cc3F)c2c1 [Example 199, 2,5-Difluoro-N-[3-fluoro-4-(6-methoxy-quinolin-4-yloxy)-phenyl]-benzenesulfonamide] | 12.5 to 50 | 10 to 25
